Earlier results, collected in paper PMC9347208, “Pharmacological activation of the hERG K^+ channel for the management of the long QT syndrome: A review” (Journal of Arrhythmia, 2022).
“Also recorded” adds a separate entry of the source. Where two headings read alike, the source gives them in different places.

Assays:
hERG1a and hERG1b = test system: hERG1a and hERG1b; parameters: method as in column Ref. of the table row
IK1 = settings: suggested, as no change to AP amplitude and diastolic potential of guinea pig cardiomyocytes
INa = settings: suggested, as no change to AP amplitude and diastolic potential of guinea pig cardiomyocytes
[1] = test system: neuronal Kv12.1 ether‐à‐ go‐go‐gene‐like (elk3) channel; parameters: method as in PMID 24041920, PMID 25809254, PMID 18452879, PMID 29050968, PMID 25191697; settings: ref [16], [27], [32], [41], [48], [58], [61], [70], [84]
guinea pig hearts = settings: Langendorff‐perfused Guinea pig hearts, high concentrations; ref [16], [27], [32], [41], [48], [58], [61], [70], [84]
hERG channel [2] = test system: hERG channel
hERG channel [3] = test system: hERG channel; remark: listed apart in the source
[4] = test system: ventricular repolarisation (APD, QT interval)
ICa,L = test system: ICa,L; parameters: method as in PMID 29050968, PMID 18042732; settings: ventricular cardiomyocytes isolated from rabbit hearts; ref [41], [83]
Ito = test system: Ito; parameters: method as in PMID 29050968, PMID 18042732; settings: ventricular cardiomyocytes isolated from rabbit hearts; ref [41], [83]
hCav1.2 (ICa,L) = test system: hCav1.2 (ICa,L); parameters: method as in column Ref. of the table row
hKir2.1 (IK1) = settings: ref [19], [29]
hKv4.3 (Ito) = settings: ref [19], [29]
hERG channel [5] = settings: astemizole, sertindole, dofetilide, and cisapride, radioligand assays, ref [19] and column References of the table row
IKr = settings: native human cardiomyocytes from LQT1 patients; ref [19], [29]
Kv1.5 (IKur) = settings: 50 μM; ref [19], [21]
[6] = test system: Dofetilide‐induced arrhythmias; settings: after pretreatment; ref [19], [21]

O=C(Nc1cc(C(F)(F)F)ccc1O)Nc1cc(C(F)(F)F)ccc1O [NS1643, 1,3‐bis‐(2‐hydroxy‐5‐trifluoromethyl‐phenyl)‐urea]
Effect against Nav1.5 channels (hNav1.5 (INa); ref [32]): inhibitory effects | Channel selectivity: sensitivity of hERG1a versus hERG1b (hERG1a and hERG1b): Differential sensitivity | Channel selectivity: effect on cardiac IK1 (IK1): Suggested absence | Channel selectivity: effect on cardiac INa (INa): Suggested absence | Channel selectivity: effect on neuronal Kv12.1 (elk3) channel [1]: Inhibitor | Reported associated pro‐arrhythmic risk: ventricular tachycardia and fibrillation (guinea pig hearts): Induces ventricular tachycardia and ventricular fibrillation | Reported benefit for LQT: diLQTS, effects of hERG inhibition by drug inhibitors (hERG channel [2]; 10 μM, inhibitors e.g. E‐4031, dofetilide, moxifloxacin, ref [16], [27], [32], [41], [48], [58], [61], [70], [84]): attenuate electrophysiological effects associated with hERG inhibition by various drug inhibitors; also recorded: did not reverse the inhibition to the control levels | Potency in reducing hERG channel inactivation (hERG channel [3]; ref [16], [31]): modest potency compared with ICA‐105574 | Type (hERG channel [3]; type of hERG activator by main mechanism of action, ref [40]): 1, 2, and possibly 3 | Efficacy against triggered activity ([4]; low concentration, in vitro and ex vivo experimental models, ref [32]): effective against triggered activity | TDR and instability of the QT interval ([4]; only in the presence of an I Ks inhibitor, ref [16]): markedly amplify

O=C(O)c1cccnc1Nc1ccc2c(c1)CN(c1ccc(Cl)c(Cl)c1)C2 [PD‐307243]
Channel selectivity: effect on recombinant hNav1.5 (INa) (hNav1.5 (INa)): No effect | Channel selectivity: effect on recombinant hKCNQ1‐KCNE1 (IKs) (hKCNQ1‐KCNE1 (IKs)): No effect | Channel selectivity: effect on ICa,L (ICa,L): Activates | Channel selectivity: effect on Ito (Ito): no effect | Reported benefit for LQT: activator effect in presence of BeKm‐1 (hERG channel [2]; ref [41], [83]): potentiated | Reported benefit for LQT: diLQTS, interaction with dofetilide (hERG channel [2]; ref [41], [83]): Dofetilide prevents the activator effect of PD and unmasks its current suppressing effect

O=C(COc1ccc(C(=O)c2ccccc2)cc1)Nc1cccnc1 [ML‐T531]
Channel selectivity: effect on recombinant hNav1.5 (INa) (hNav1.5 (INa)): No effect | Channel selectivity: effect on hKCNQ1‐KCNE1 channels (IKs) (hKCNQ1‐KCNE1 (IKs); 10 μM, ref [19], [29]): minor suppressive effect | Channel selectivity: effect on recombinant hCav1.2 (ICa,L) (hCav1.2 (ICa,L)): No effect | Channel selectivity: effect on recombinant hKir2.1 (IK1) (hKir2.1 (IK1)): No effect | Channel selectivity: effect on recombinant hKv4.3 (Ito) (hKv4.3 (Ito)): No effect | Allosteric effect on the binding of hERG blockers (hERG channel [5]): Negative effect on the binding | Allosteric effect on the binding of hERG blockers (hERG channel [5]; listed as MLT‐531): negative allosteric modulators | Reported benefit for LQT: cLQTS, IKr (IKr): IKr increase

O=C(COc1ccc2ccccc2c1Br)Nc1cccnc1 [VU0405601]
Channel selectivity: effect on recombinant Nav1.5 (INa) (hNav1.5 (INa); 50 μM, ref [19], [21]): No or small effect of 50 μM on recombinant cardiac Kv1.5 (IKur), Nav1.5 (INa), and KCNQ1 + KCNE1 (IKs) channels. | Channel selectivity: effect on recombinant KCNQ1 + KCNE1 (IKs) (hKCNQ1‐KCNE1 (IKs); 50 μM, ref [19], [21]): No or small effect of 50 μM on recombinant cardiac Kv1.5 (IKur), Nav1.5 (INa), and KCNQ1 + KCNE1 (IKs) channels. | Channel selectivity: effect on recombinant cardiac Kv1.5 (IKur) (Kv1.5 (IKur)): No or small effect of 50 μM on recombinant cardiac Kv1.5 (IKur), Nav1.5 (INa), and KCNQ1 + KCNE1 (IKs) channels. | Allosteric effect on the binding of hERG blockers (hERG channel [5]): negative allosteric modulators; also recorded: weaken interactions | Reported benefit for LQT: diLQTS, dofetilide‐induced arrhythmias [6]: reduced
